Consider 55 compounds from publication PMC7983974 (Basic & Clinical Pharmacology & Toxicology, 2020).

A word on the IC50: it is the point on the concentration scale where inhibition reaches its midpoint. Low values mean greater potency in that assay, high ones weaker potency in that assay.

“And” between values parts separate entries of the source, which are not always exact repeats. Identical values can stand only once. Like-named read-outs stand apart in the source and are kept apart here.

Data set [1] has as its target T1, UGT-mediated glucuronidation of molidustat (M1 formation) (Homo sapiens, UniProt P22309).
T1 sequence (P22309 26-533): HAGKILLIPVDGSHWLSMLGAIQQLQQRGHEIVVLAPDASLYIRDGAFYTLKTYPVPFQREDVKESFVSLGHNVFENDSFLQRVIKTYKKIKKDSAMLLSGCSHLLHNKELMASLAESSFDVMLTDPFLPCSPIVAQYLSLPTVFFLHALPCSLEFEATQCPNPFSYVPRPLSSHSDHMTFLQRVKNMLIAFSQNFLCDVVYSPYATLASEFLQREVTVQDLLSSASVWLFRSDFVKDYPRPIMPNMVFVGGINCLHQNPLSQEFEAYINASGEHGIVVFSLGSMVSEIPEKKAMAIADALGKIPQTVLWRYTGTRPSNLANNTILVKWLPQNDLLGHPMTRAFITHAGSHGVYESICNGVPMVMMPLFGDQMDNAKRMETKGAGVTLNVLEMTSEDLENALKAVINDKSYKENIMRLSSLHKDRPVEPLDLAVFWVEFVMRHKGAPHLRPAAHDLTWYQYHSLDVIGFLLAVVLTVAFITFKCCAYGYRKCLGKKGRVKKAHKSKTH
The data set can be described thus: Inhibition of M1 formation from molidustat in pooled human liver microsomes. The class given is in vitro ADME. As to conditions: human, pooled human liver microsomes, probe molidustat 5 µmol/L (formation of M1), IC50, pooled HLMs 0.3 mg/mL, N=1, Table 1. A general note: Microsomes from liver hold many membrane-bound enzymes, among them those of drug oxidation.

Data set [2] deals with molidustat glucuronidation (clearance). As to the kind of experiment: In vitro-in vivo scaling: predicted increase in molidustat AUC. Also noted: species or system human. As to conditions: fm 0.9; unbound hepatic inlet concentration, ka 0.1 min^−1.
Data set [3] is classed as in vivo, human. The note with it: for t max: n = 13, median and range.
The mark [4] stands for this setting: (Molidustat + atazanavir)/molidustat, ANOVA.

In data set [1], `CCc1nn(CCCN2CCN(c3cccc(Cl)c3)CC2)c(=O)n1CCOc1ccccc1` [Nefazodone] yielded an IC50 at 30 min of 11.4 µM. This counts as double-digit micromolar.
Still for that read-out and setting: for `O=C1Nc2ccc(Cl)cc2[C@@](C#CC2CC2)(C(F)(F)F)O1` [Efavirenz] the value was 8 µM; for `CN(CCOc1ccc(CC2SC(=O)NC2=O)cc1)c1ccccn1` (centres unmarked) [Rosiglitazone], 10.7 µM.
Still for that read-out and setting: then `CC(C)(C)NC(=O)[C@@H]1CN(Cc2cccnc2)CCN1C[C@@H](O)C[C@@H](Cc1ccccc1)C(=O)N[C@H]1c2ccccc2C[C@H]1O` [Indinavir], with 3 µM.
On the same count and under the same terms, for `CNC(=O)c1cc(Oc2ccc(NC(=O)Nc3ccc(Cl)c(C(F)(F)F)c3)cc2)ccn1` [Sorafenib] the value was 0.32 µM; for `C[C@]12CC[C@@H](O)C[C@@H]1CC[C@@H]1[C@@H]2CC[C@]2(C)C(=O)CC[C@@H]12` [Androsterone], 44 µM.
Consider `O=C(O)c1cccnc1Nc1cccc(C(F)(F)F)c1` [Niflumic acid], for which, in data set [1], the half-maximal inhibitory concentration (IC50) at 30 min was 14.6 µM.
On the same count and under the same terms, for `C=CC1=C(C)/C(=C/c2[nH]c(Cc3[nH]c(/C=C4\NC(=O)C(C)=C4C=C)c(C)c3CCC(=O)O)c(CCC(=O)O)c2C)NC1=O` [Bilirubin] the value was 1.5 µM; for `COc1cc2ncnc(Nc3ccc(F)c(Cl)c3)c2cc1OCCCN1CCOCC1` [Gefitinib], 1.8 µM.
With `COCC(=O)O[C@]1(CCN(C)CCCc2nc3ccccc3[nH]2)CCc2cc(F)ccc2[C@@H]1C(C)C` [Mibefradil], in data set [1], the IC50 at 30 min turned out to be 20.2 µM.
Turning to `Cc1cn(-c2cc(NC(=O)c3ccc(C)c(Nc4nccc(-c5cccnc5)n4)c3)cc(C(F)(F)F)c2)cn1` [Nilotinib], the “AUCRinlet, ka 0.1 min^−1 (estimated increase in molidustat AUC)” value in data set [2] is recorded as “more than fivefold”. For the same compound, the IC50 at 30 min in data set [1] is 0.17 µM.
For the compound `O=C1C(CC[S+]([O-])c2ccccc2)C(=O)N(c2ccccc2)N1c1ccccc1` (centres unmarked) [Sulfinpyrazone], the IC50 at 30 min in data set [1] was 31.4 µM. That is a double-digit micromolar value.
Still for that read-out and setting: then `C=CC[C@@H]1/C=C(\C)C[C@H](C)C[C@H](OC)[C@H]2O[C@@](O)(C(=O)C(=O)N3CCCC[C@H]3C(=O)O[C@H](/C(C)=C/[C@@H]3CC[C@@H](O)[C@H](OC)C3)[C@H](C)[C@@H](O)CC1=O)[C@H](C)C[C@@H]2OC` [Tacrolimus], with 0.7 µM; and `O=c1c(-c2ccc(O)cc2)coc2cc(O)cc(O)c12` [Genistein], with 2.3 µM.
On the same count and under the same terms, for `COc1ccc(Cl)cc1C(=O)NCCc1ccc(S(=O)(=O)NC(=O)NC2CCCCC2)cc1` [Glibenclamide] the value was 6.3 µM; for `Clc1ccccc1C(c1ccccc1)(c1ccccc1)n1ccnc1` [Clotrimazole], 10.2 µM; for `O=c1c(O)c(-c2ccc(O)c(O)c2)oc2cc(O)cc(O)c12` [Quercetin], 5.5 µM.
Same read-out and setting: then `Cc1nc(Nc2ncc(C(=O)Nc3c(C)cccc3Cl)s2)cc(N2CCN(CCO)CC2)n1` [Dasatinib], with 1.4 µM.
Consider `CCCc1nn(C)c2c(=O)[nH]c(-c3cc(S(=O)(=O)N4CCN(C)CC4)ccc3OCC)nc12` [Sildenafil], for which the half-inhibitory concentration (IC50) at 30 min in data set [1] turned out to be 46.2 µM.
Same read-out and setting: then `O=C(O)Cc1ccccc1Nc1c(Cl)cccc1Cl` [Diclofenac], with 38.2 µM; and `COc1cc(N)c(Cl)cc1C(=O)NC1CCN(CCCOc2ccc(F)cc2)CC1OC` (centres unmarked) [Cisapride], with 4.1 µM.
In the case of `COC(=O)N[C@H](C(=O)N[C@@H](Cc1ccccc1)[C@@H](O)CN(Cc1ccc(-c2ccccn2)cc1)NC(=O)[C@@H](NC(=O)OC)C(C)(C)C)C(C)(C)C` [Atazanavir], in data set [2], the “AUCRinlet, ka 0.1 min^−1 (estimated increase in molidustat AUC)” value is recorded as “more than fivefold”.
`CC[C@H](C)C(=O)O[C@H]1CCC=C2C=C[C@H](C)[C@H](CC[C@@H]3C[C@@H](O)CC(=O)O3)[C@H]21` [Mevastatin] yielded an IC50 at 30 min in data set [1] of 13.2 µM.
The same measure, in the same setting: then `COc1cccc2c1C(=O)c1c(O)c3c(c(O)c1C2=O)C[C@@](O)(C(=O)CO)C[C@@H]3O[C@H]1C[C@H](N)[C@H](O)[C@H](C)O1` [Doxorubicin], with 40.4 µM.
Take `CC(C)(O)c1ccccc1CC[C@@H](SCC1(CC(=O)O)CC1)c1cccc(/C=C/c2ccc3ccc(Cl)cc3n2)c1` [Montelukast]: half-maximal inhibition in data set [1] (IC50 at 30 min) was put at 0.49 µM. This IC50 at 30 min lies about 82-fold lower than the previous one.
The same measure, in the same setting: then `CC1=C(CC(=O)O)c2cc(F)ccc2/C1=C\c1ccc([S+](C)[O-])cc1` (centres unmarked) [Sulindac], with 37.5 µM; and `CS(=O)(=O)CCNCc1ccc(-c2ccc3ncnc(Nc4ccc(OCc5cccc(F)c5)c(Cl)c4)c3c2)o1` [Lapatinib], with 2.5 µM.
For the compound Molidustat glucuronide [M1], the t max in data set [3] (25 mg molidustat + atazanavir 400 mg qd for 5 days) is 2.0 (1.5‐4.0) H. For the same compound, the t max in data set [3] (25 mg molidustat alone) is on record as 2.0 (1.0‐3.0) H. Also, in data set [3] (setting [4]), the “Point estimate parameter ratio, AUC” value is 0.85 and 0.8472; the “Point estimate parameter ratio, AUC(0‐tlast)” value is reported as 0.8470; the “Point estimate parameter ratio, C max” value was 0.80 and 0.8002. The “reduction in systemic exposure to the glucuronide M1 with atazanavir” value in data set [3] (human, in vivo) is −15%. In addition, in data set [3] (relative to molidustat alone), the “exposure to M1 in the presence of atazanavir” value is “approximately 85%”.
`CC[C@H](C)C(=O)O[C@H]1C[C@@H](C)C=C2C=C[C@H](C)[C@H](CC[C@@H]3C[C@@H](O)CC(=O)O3)[C@H]21` [Lovastatin]: in data set [1], the 50% inhibitory concentration (IC50) at 30 min is 10.5 µM.
Still for that read-out and setting: for `COc1ccc(CCN2CCC(Nc3nc4ccccc4n3Cc3ccc(F)cc3)CC2)cc1` [Astemizole] the value was 23.5 µM.
Same read-out and setting: for `CCC(C)n1ncn(-c2ccc(N3CCN(c4ccc(OCC5COC(Cn6cncn6)(c6ccc(Cl)cc6Cl)O5)cc4)CC3)cc2)c1=O` (centres unmarked) [Itraconazole] the value was 1.2 µM.
`O=C(O)c1cc(-c2ccc(F)cc2F)ccc1O` [Diflunisal] displayed an IC50 at 30 min in data set [1] of 75.6 µM.
Same read-out and setting: for `O=c1c(-c2ccc(O)cc2)coc2cc(O)ccc12` [Daidzein] the value was 6.8 µM; for `Cc1cccc(C)c1OCC(=O)N[C@@H](Cc1ccccc1)[C@@H](O)C[C@H](Cc1ccccc1)NC(=O)[C@H](C(C)C)N1CCCNC1=O` [Lopinavir], 1.3 µM.
Compound `CC#C[C@]1(O)CC[C@H]2[C@@H]3CCC4=CC(=O)CCC4=C3[C@@H](c3ccc(N(C)C)cc3)C[C@@]21C` [Mifepristone] had an IC50 at 30 min in data set [1] of 1.4 µM.
Same read-out and setting: then `CCN(CC)CCNC(=O)c1c(C)[nH]c(/C=C2\C(=O)Nc3ccc(F)cc32)c1C` [Sunitinib], with 18.7 µM.
As for `COc1ccc2[nH]c([S+]([O-])Cc3ncc(C)c(OC)c3C)nc2c1` (centres unmarked) [Omeprazole], in data set [1], inhibition was half-maximal at 17.1 µM (IC50 at 30 min).
Still for that read-out and setting: then `O=C(O)C[C@H](O)C[C@H](O)/C=C/c1c(C2CC2)nc2ccccc2c1-c1ccc(F)cc1` [Pitavastatin], with 14.8 µM.
The same measure, in the same setting: then `O=C1C[C@@H](c2ccc(O)cc2)Oc2cc(O)cc(O)c21` [Naringenin], with 11.6 µM; and `CO[C@H]1C[C@@H]2CC[C@@H](C)[C@@](O)(O2)C(=O)C(=O)N2CCCC[C@H]2C(=O)O[C@H]([C@H](C)C[C@@H]2CC[C@@H](OCCO)[C@H](OC)C2)CC(=O)[C@H](C)/C=C(\C)[C@@H](O)[C@@H](OC)C(=O)[C@H](C)C[C@H](C)/C=C/C=C/C=C/1C` [Everolimus], with 4.5 µM; and `Cc1nc(-c2ccc(OCC(C)C)c(C#N)c2)sc1C(=O)O` [Febuxostat], with 7.2 µM.
Compound `CCCc1nc2c(C)cc(-c3nc4ccccc4n3C)cc2n1Cc1ccc(-c2ccccc2C(=O)O)cc1` [Telmisartan] returned an IC50 at 30 min in data set [1] of 2.8 µM.
On the same count and under the same terms, for `COc1ccnc(C[S+]([O-])c2nc3ccc(OC(F)F)cc3[nH]2)c1OC` (centres unmarked) [Pantoprazole] the value was 19.7 µM; for `Cc1ccc(-c2cc(C(F)(F)F)nn2-c2ccc(S(N)(=O)=O)cc2)cc1` [Celecoxib], 10.6 µM; for `Cc1c(O)cccc1C(=O)N[C@@H](CSc1ccccc1)[C@H](O)CN1C[C@H]2CCCC[C@H]2C[C@H]1C(=O)NC(C)(C)C` [Nelfinavir], 1.5 µM.
In the case of `CC(C)=CCC/C(C)=C/COc1c2ccoc2cc2oc(=O)ccc12` [Bergamottin], in data set [1], the concentration for half-maximal inhibition (IC50) at 30 min was 14.8 µM.
Same read-out and setting: for `Cc1ncc2n1-c1ccc(Cl)cc1C(c1ccccc1F)=NC2` [Midazolam] the value was 11.1 µM.
The compound `Oc1cc(O)c2c(c1)O[C@H](c1cc(O)c(O)c(O)c1)[C@H](O)C2` [(‐)‐Epigallocatechin] yielded a half-inhibitory concentration (IC50) at 30 min in data set [1] of 5.1 µM.
The same measure, in the same setting: then `COc1cc(/C=C/C(=O)CC(=O)/C=C/c2ccc(O)c(OC)c2)ccc1O` [Curcumin], with 2.2 µM; and `Cc1c(OCC(F)(F)F)ccnc1C[S+]([O-])c1nc2ccccc2[nH]1` (centres unmarked) [Lansoprazole], with 36.8 µM.
In turn, `COc1ccc(/C=C/C(=O)Nc2ccccc2C(=O)O)cc1OC` [Tranilast] came in with a concentration for half-maximal inhibition (IC50) at 30 min in data set [1] of 1.7 µM. Compared with the last compound, the IC50 at 30 min is about 22-fold lower.
`COc1ccccc1OCCNCC(O)COc1cccc2[nH]c3ccccc3c12` (centres unmarked) [Carvedilol] had a half-maximal inhibitory concentration (IC50) at 30 min in data set [1] of 2.9 µM. Against the preceding compound, the IC50 at 30 min is about 1.7-fold higher.
On the same count and under the same terms, for `CC(=O)O[C@H]1C(=O)[C@@]2(C)[C@H]([C@H](OC(=O)c3ccccc3)[C@]3(O)C[C@H](OC(=O)[C@H](O)[C@@H](NC(=O)c4ccccc4)c4ccccc4)C(C)=C1C3(C)C)[C@]1(OC(C)=O)CO[C@@H]1C[C@@H]2O` [Paclitaxel] the value was 10.8 µM; for `CC(=O)N1CCN(c2ccc(OCC3COC(Cn4ccnc4)(c4ccc(Cl)cc4Cl)O3)cc2)CC1` (centres unmarked) [Ketoconazole], 6.1 µM; for `Clc1ccc(COC(Cn2ccnc2)c2ccc(Cl)cc2Cl)c(Cl)c1` (centres unmarked) [Miconazole], 19.3 µM.
